According to patent US20250345453A1, “CHEMOTHERAPEUTIC MICELLULAR NANOPARTICLES” (Peptinovo Biopharma Inc., priority 2024, published 2025):

Key:
SK-OV-3 cells = experiment: Growth inhibition of SK-OV-3 cells, MTT assay after 72 hr; format: cell-based, human; settings: conjugates delivered in C-m-HDLs, SEQ ID NO: 35 peptide, solvent lyophilization, FIG. 12A
Protocol: In this Example, the mole portions of components in the C-m-HDLs prepared by solvent lyophilization were POPC: egg SM: peptide: conjugate 5.6:2.4:2:1. 20 mM stock solutions of POPC and of egg SM were prepared in tert-butyl alcohol: water (8:2 v/v). […] Conjugates 20 and 30 were separately dissolved in tert-butyl alcohol: water (95:5) to a final concentration of 10 mM.
For C-m-HDL preparation, 2.8 mL of 20 mM POPC, 1.2 mL of 20 mM egg SM, 2 mL of 10 mM peptide, 1 mL of 10 mM conjugate, and 0.3 mL acetic acid were combined in a 20 mL glass vial. The combined solution was frozen at ≥−70° C. for ≥1 hr. The frozen vial was placed in the chamber of a lyophilizer set at a shelf temperature of −20° C. A vacuum between 100 to 150 mTorr was applied for ≥20 hr. The shelf temperature was raised to −10° C. and the vacuum was continued for ≥15 hr. The shelf temperature was then raised to 20° C. and the vacuum continued for 24 hr. The dried cake was dissolved in PBS to obtain C-m-HDLs. The uniformity of the C-m-HDLs was evaluated by SEC (Acclaim™ SEC-1000, 300 mm×4.6 mm column, 0.3 mL/min PBS mobile phase, 210 nm and 280 nm UV detection) and by dynamic light scattering. The phospholipid content was established with a commercially available, enzyme-based, colorimetric assay kit. Peptide and conjugate content were established by HPLC.
Two C-m-HDLs were prepared as above, containing either Conjugate 20 or Conjugate 30 were then tested for their growth inhibition activity against SK-OV-3 cells (ATCC). SK-OV-3 cells were grown in McCoy's-5A media supplemented with 10% fetal bovine serum and maintained in a 37° C. incubator under a 5% CO2 atmosphere. To assess growth inhibition, the growth medium of cells grown in 96-well plates was supplemented with various concentrations of C-m-HDL (cmpd 20), C-m-HDL (compd 30) or paclitaxel from a DMSO stock solution. The 96-well plates were incubated for 72 hr. The relative amount of live cells in each of the wells after 72 hr was determined with the MTT assay. […]

[1] = system: female Sprague-Dawley rats; experiment: Adrenal gland functionality after dosing: plasma corticosterone after ACTH challenge; format: in vivo, rat; settings: paclitaxel in Cremophor EL/ethanol, 4 mg/kg intraperitoneally Days 1, 4, 7; FIG. 10
Protocol: A paclitaxel stock solution was prepared by dissolving paclitaxel in 1:1 (v/v) Cremophor EL/ethanol (95%) to a final paclitaxel concentration of […] (C-E paclitaxel solution). Next, a paclitaxel solution suitable for dosing was prepared by combining one volume of the C-E paclitaxel solution with 3 volumes of 0.9 weight % NaCl. This solution is designated as “Control”.
C-m-HDL (cmpd 20) was prepared as per Example 12.
Eighteen (18) female Sprague-Dawley rats were randomly assigned to 3 groups of 6 animals each. All animals were lightly anesthetized using isoflurane and dosed intraperitoneally on Days 1, 4, and 7 with paclitaxel at 4 mg/kg in a dose volume of 1.5 mL/kg, or intravenously with C-m-HDL (cmpd 20) at 4 mg/kg or vehicle (saline) via the tail vein using a dose volume of 1.5 mL/kg. Group I received saline, Group 2 received paclitaxel, and Group 3 received C-m-HDL (cmpd 20). On Day 11, rats in each group were lightly anesthetized using isoflurane within their home cage to minimize potential stress responses. Blood (˜200 μL) was collected into K3EDTA tubes prior to ACTH challenge (baseline). Rats were then challenged with a single intraperitoneal injection of ACTH (ACTH 1-24, Sigma-Aldrich A0298-1922) in normal saline at […] in a dose volume of 2 mL/kg. […] Plasma corticosterone content was determined with a commercially available ELISA kit.

CC(=O)O[C@H]1C(=O)[C@@]2(C)[C@H]([C@H](OC(=O)c3ccccc3)[C@]3(O)C[C@H](OC(=O)[C@H](OC(=O)Oc4cc(C)c5c(c4)CC[C@@](C)(CC/C=C(\C)CC/C=C(\C)CCC=C(C)C)O5)[C@@H](NC(=O)c4ccccc4)c4ccccc4)C(C)=C1C3(C)C)[C@]1(OC(C)=O)CO[C@@H]1C[C@@H]2O [Conjugate 20, paclitaxel-delta-tocotrienol conjugate]
SK-OV-3 growth inhibition activity, delta-tocotrienol versus delta-tocopherol anchor (SK-OV-3 cells): equivalent results | SK-OV-3 growth inhibition activity, delta-tocotrienol versus delta-tocopherol anchor (SK-OV-3 cells; listed as paclitaxel-delta-tocotrienol): essentially equivalent

CC(=O)O[C@H]1C(=O)[C@@]2(C)[C@H]([C@H](OC(=O)c3ccccc3)[C@]3(O)C[C@H](OC(=O)[C@H](O)[C@@H](NC(=O)c4ccccc4)c4ccccc4)C(C)=C1C3(C)C)[C@]1(OC(C)=O)CO[C@@H]1C[C@@H]2O [paclitaxel]
adrenal toxicity (plasma corticosterone after ACTH challenge) [1]: lack of adrenal toxicity

Paclitaxel-δ-tocopherol conjugate with a cleavable carbonate bond [No. 82]
SK-OV-3 growth inhibition activity, delta-tocotrienol versus delta-tocopherol anchor (SK-OV-3 cells; listed as paclitaxel-delta-tocopherol): essentially equivalent | SK-OV-3 growth inhibition activity, delta-tocotrienol versus delta-tocopherol anchor (SK-OV-3 cells; listed as δ-tocopherol-paclitaxel): equivalent results
